# Patent publication US20240016784A1, “Y BOX BINDING PROTEIN 1 INHIBITORS” (Oregon Health & Science University, priority 2020, published 2024)
# Key:
# [1] = Tolerability of SU056 at increasing concentrations; format: in vivo; conditions: for death: different concentration; for tolerability: increasing concentrations
# Excerpt: FIGS. 15A-15E. […] SU056 treatment at increasing concentrations dose not challenge the dietary behavior as reflected by change in body weight FIG. 15A) Mice and FIG. 15B) Rat. […] Liver microsomes were used for the purpose of metabolic profiling.
# Pharmacokinetics study = format: in vivo; conditions: injection of 20 mg/kg, intraperitoneal, mouse
# Description: In a pharmacokinetics study in vivo, injection of 20 mg/kg SU056 led to a maximum serum concentration of 28.19 μg/mL with a T1/2 of ˜45 min. We then tested the synergism of paclitaxel and SU056 co-treatment in vivo in NOD-SCID mice implanted with OVCAR8 OC tumors as described above. Mice were given daily treatment of SU056 (10 mg/kg) and weekly treatment of paclitaxel (5 mg/kg) were administered intraperitoneally. […] This likely resulted from decreased paclitaxel efflux from OVCAR8 cells in the presence of SU056.
# Pharmacokinetics study: SU056 Plasma concentration was determined by mass quantification analysis using an Agilent 6490 Funnel triple quadrupole (QQQ) mass spectrometer equipped with an Agilent 1290 infinity II UHPLC. An analytical C18 column, ZORBAX C18 (Eclipse Plus, 2.1×50 mm, 1.8 μm particle size) was used. The mobile phase was composed of 60% water buffered with 0.1% formic acid and 4 mM ammonium formate and 40% acetonitrile buffered with 0.1% formic acid. […] The precursor ion [M+H]+ and product ion for SU056 were monitored at m/z 370.0 and m/z 274.2, respectively. And the precursor ion [M+H]+ and product ion for IS were monitored at m/z 338.1 and m/z 260, respectively. […]
# FIG. 10: Pharmacokinetics of SU056. […] After injection plasma was collected at respective time point and was analyzed using LC MS/MS as described in method.
# [2] = biological target: T1, YB-1 in OVCAR4, OVCAR8, and SKOV3 cells (Homo sapiens, UniProt P67809); assay: YB-1 inhibition time kinetics (YB-1 ELISA); format: cell-based; conditions: 5 μM treatment for 24 h; all three OC cells
# T1 construct: endogenous in cells; host or cells: OVCAR4, OVCAR8, SKOV3
# Description: Out of six targets identified, we selected proteins whose thermal shift is above 5° in the presence of SU056 for further study of protein expression after treatment. […] To study the in vivo effects of SU056 treatment, we analyzed ID8 tumor xenograft samples via immunohistochemistry (IHC). […] To identify the broader effects of SU056 on YB-1 and its downstream protein/activity in different ovarian cancer cell lines, we selected six different cell lines and treated them with SU056 (2.5 μM) for 12 h. Cells were analyzed for YB-1 and CD44 expression and Multidrug resistance 1 (MDR1, ABC pump mediated efflux). […] Finally, we tested the time kinetics and dose-dependent effects of SU056 on YB-1 expression. OVCAR4, OVCAR8, and SKOV3 cells were treated with SU056 (1, 2.5, and 5 μM) for 3, 6, 12, and 24 h and YB-1 expression was measured using YB-1 ELISA. […]
# Total YB-1 sandwich ELISA: Total YB-1 protein level was analyzed using PathScan® Total YB1 Sandwich ELISA Kit (Cell Signaling, #12543) by following the manufacturer's protocol.
# FIGS. 4A-4E: SU056 inhibits YB-1. […] FIG. 4C) Respective OC cells were treated with 2.5 μM SU056 for 12 h and YB-1 & CD44 expression and multidrug resistance activity was measured as described in the ‘method’ section. The % inhibition was calculated and compared to the control for the respective cell line. […]
# T1 sequence (P67809 whole entry): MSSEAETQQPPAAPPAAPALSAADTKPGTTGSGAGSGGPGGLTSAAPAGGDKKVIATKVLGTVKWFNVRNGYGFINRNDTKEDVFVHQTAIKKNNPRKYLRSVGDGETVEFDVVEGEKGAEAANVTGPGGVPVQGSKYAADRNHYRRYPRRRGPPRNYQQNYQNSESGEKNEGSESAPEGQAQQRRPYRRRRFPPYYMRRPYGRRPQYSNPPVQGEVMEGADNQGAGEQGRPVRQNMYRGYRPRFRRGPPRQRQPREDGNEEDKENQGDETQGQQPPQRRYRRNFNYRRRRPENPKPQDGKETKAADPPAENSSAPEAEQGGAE
compound,measurement,setting,value
"O=C1OCC2=C1C(c1cccc(F)c1)c1cc3c(cc1N2CCO)OCO3 (stereo not shown) [SU056, 9-(3-fluorophenyl)-5-(2-hydroxyethyl)-6,9-dihydro-[1,3]dioxolo[4,5-g]furo[3,4-b]quinolin-8(5H)-one]",death,[1]; mice,did not cause death
same,tolerability,[1]; mice,well tolerated
same,death,[1]; rat,did not cause death
same,tolerability,[1]; rat,well tolerated
same,maximum serum concentration,Pharmacokinetics study,28.19 µg/mL
same,half-life,"Pharmacokinetics study; plasma, ip",~45 min
same,YB-1 inhibition,[2],100%
